Test results: US20160160189A1, “Truncated Constructs of RIPK3 and Related Uses” (ST. JUDE CHILDREN'S RESEARCH HOSPITAL, priority 2013, published 2016)

Key:
[1] = test system: RIPK3 necrosome complex (RIPK1, caspase-8); assay: Anti-FLAG immunoprecipitation of necrosome complexes; assay type: cell-based, murine; settings: AP1 30 minutes
Description: Immunoprecipitation of necrosome complexes were carried out using rabbit anti-FLAG antibodies, and TruBlot IP reagents (Rockland Immunochemicals) to eliminate non-specific signals from immunoglobulin heavy and light chains. Briefly, cell lines were treated as indicated and lysed in NP40 buffer (30 mM Tris, 150 mM NaCl, and 1% NP40) supplemented with protease inhibitors. Twenty micrograms of each sample were reserved for “input,” while 500 μg of total protein from each sample were immunoprecipitated with 0.5 μg antibody conjugated to 30 μL TruBlot anti-Rabbit IgG beads Immunocomplexes were washed 4 times in NP40 buffer, eluted by boiling, then run on western blot. Western blots were analyzed using standard primary antibodies, but TruBlot anti-Rabbit and anti-Mouse HRP-conjugated 14 secondary antibodies were used. A standard anti-Rat-HRP secondary was used to detect caspase-8.

[2] = test system: NIH-3T3 cells expressing RIPK3-2xFv; assay: AP1-induced RIPK3 oligomerization cell death, IncuCyte imaging; assay type: cell-based, murine; settings: compared with RIPK3-1xFv
Source text: Consequently, two Fv domains were attached to the C-terminus of RIPK3, creating a RIPK3-2xFv construct, with the goal of promoting AP1-induced crosslinking and oligomerization independent of the RHIM domain. See, FIG. 12A. […] Compare, FIGS. 16A and 15A, respectively. […] Cells expressing this RHIM-deficient RIPK3^ΔC-2xFv construct were nonresponsive to TNF+zVAD, previously reported to be dependent on RIPK1 RHIM/RIPK3 RHIM interactions. See, FIG. 13G. […] See, FIG. 16C and FIG. 16D, respectively. […] See, FIG. 16E. […] See, FIG. 16F.
Cell death assays were carried out using a 2-color IncuCyte Zoom in-incubator imaging system (Essen Biosciences.) Briefly, this system allows fully automated imaging of cells at set intervals in phase contrast as well as both red and green fluorescent channels. Cell death assays were carried out by treating cells with death-inducing compounds in 24 well tissue culture vessels (100,000 cells/well), in the presence of 100 nM of the cell-impermeable DNA binding fluorescent dyes Sytox Green (Life Technologies 57020) or Yoyo-3 (Y3606), which are excluded from healthy cells but rapidly enter dying cells upon membrane permeabilization, in a manner analogous to propidium iodide.
Resulting images were analyzed using the software package supplied with the IncuCyte imager, which allows precise analysis of the number of Sytox Green or Yoyo-3 positive cells present in each image. For each experiment, a minimum of three separate wells were treated with each experimental condition, and a minimum of 4 image fields were assessed per well. Percent cell death was calculated by treating a minimum of three distinct wells in each experiment with 100 nM of the cell permeable fluorescent dye Syto Green (S7559), which allows quantification of the total number of cells present in each field. Dead cell events acquired via Sytox Green or Yoyo-3 staining were divided by this total cell number to yield percent cell death at each timepoint. Error bars represent standard deviation from the mean of a minimum of three independent wells. Each result depicted is representative of at least 4 distinct experiments, each of which contained at least 3 technical replicates.

[3] = test system: RIPK3 complexes; assay: DSS crosslinking of necrosome complexes resolved by western blotting; assay type: cell-based, murine; settings: DSS crosslinking, western blot
Description: A confluent monolayer of the indicated cells was incubated with the appropriate treatment for 30 minutes at 37 degrees. Cells were lysed in a modified, Tris-free NP40 buffer (30 mM HEPES pH 7.4, 150 mM NaCl, and 1% NP40) without protease inhibitors. Protein lysate was quantified according to standard BCA assay (Pierce) and fifty micrograms of each sample was treated with 0.1 mM DSS crosslinking agent (Thermo Scientific, #21658) for 30 minutes at room temperature; the reaction was quenched by the addition of Tris-HCl pH 7.2 to a final concentration of 50 mM for 15 minutes. Crosslinked samples were analyzed by Western blot as described above, using the anti-2A primary antibody for detection.

[4] = test system: NIH-3T3 cells stably expressing RIPK3-1xFv; assay: TNF-induced necroptosis, IncuCyte imaging; assay type: cell-based, murine; settings: TNF plus caspase inhibitor zVAD
Description: Expression of RIPK3-1xFv sensitized these cells to necroptosis induced by the combination of TNF and a caspase inhibitor (zVAD) in a manner analogous to that observed in Jax cells, a murine fibroblast line that expresses endogenous RIPK3. See, FIG. 13C. […]
Resulting images were analyzed using the software package supplied with the IncuCyte imager, which allows precise analysis of the number of Sytox Green or Yoyo-3 positive cells present in each image. For each experiment, a minimum of three separate wells were treated with each experimental condition, and a minimum of 4 image fields were assessed per well. Percent cell death was calculated by treating a minimum of three distinct wells in each experiment with 100 nM of the cell permeable fluorescent dye Syto Green (S7559), which allows quantification of the total number of cells present in each field. […]

[5] = compared with AP1510; cited from earlier work
[6] = target: wild type FKBP (Homo sapiens, UniProt P62942); settings: relative to Phe36Val FKBP; cited from earlier work
[7] = target: FKBPs with a single amino acid substitution, Phe36Val (Fv) (Homo sapiens, UniProt P62942, F37V); settings: FKBP Phe36Val (Fv); cited from earlier work
[8] = test system: mice; settings: delivered intravenously; cited from earlier work
[9] = test system: cells; settings: cited from earlier work
[10] = serial dilution in (aqueous) culture medium; cited from earlier work
[11] = test system: mice; settings: mouse, in vivo; cited from earlier work
[12] = test system: splenocyte proliferation; settings: relative to rapamycin; cited from earlier work
[13] = test system: NIH-3T3 cells stably expressing RIPK3-1xFv; assay: AP1-induced RIPK3 dimerization cell death, IncuCyte imaging; assay type: cell-based, murine; settings: AP1 alone, absence of TNF; depended on AP1 concentration
Source text: Fv domains rapidly dimerize in response to AP1 treatment that facilitated an investigation of the protein-protein interactions involved in RIPK3 activation and necroptosis (27a). For example, an Fv domain was appended to a C-terminus of RIPK3, that is adjacent to the RHIM domain, in an effort to mimic in situ RHIM-dependent interactions that define RIPK3 activation. RIPK3-1xFv was expressed in NIH-3T3 cells, a cell line that lacks endogenous RIPK3 expression and is therefore unresponsive to TNF-induced necroptosis. See, FIGS. 13A and 13B. Cell death responses of NIH-3T3 cells were quantified by construct expression over time using the IncuCyte imaging system, which allows precise quantification of cell death with high temporal resolution. For example, representative images were acquired from an IncuCyte Imager (data not shown). These images were NIH-3T3 cells stably expressing RIPK3-1xFV, treated with 10 nM AP1 (see FIG. 1B for a quantified graphical representation of this cell death). One set of images show a field of these cells undergoing RIPK3-dependent cell death; the media contains the cell impermeable DNA binding dye Sytox Green, which marks cells that have lost membrane integrity in green. Another set of images depicts the same image set, following analysis by the IncuCyte software package. This software counts each green (dead) cell in each image; counted cells are surrounded by purple halos. Each trace shown in this manuscript depicts data averaged from at least 3 independently treated wells of cells, each of which is imaged in at least 4 separate fields. Each experiment shown is representative of at least 3 separate replicates. All experiments on stably transduced cells is representative of at least three separate replicates performed on each of at least two distinct, independently-derived stable lines.
In the examples below, the following compounds were used: Recombinant murine TNF (Peprotech 315-01A) was used at 1 ng/ml unless otherwise specified; AP1 (Now commercialized by Clontech as “B/B Homodimerizer,” catalog #635059) was dissolved in ethanol to a concentration of 100 μM, then diluted in culture media to a final concentration of 30 nM unless otherwise indicated. zVAD (SM 13 Biochemicals SMFMK001) was dissolved in DMSO to a concentration of 50 mM, then diluted to 50 μM in culture media; Necrostatin-1(Sigma N9037-10MG) was dissolved in DMSO to a concentration of 30 mM, then diluted to 30 μM in culture media; TNFR-Fc (Fisher 430-RI-050) was used at a final concentration of 200 ng/ml; Shield drug was a kind gift of Dr. Tom Wandless and was used at a final concentration of 1 μM. SiGenome SMARTpool siRNAs were purchased from Dharmacon/Fisher. Pools targeting murine MLKL(M-061420-01), murine RIPK1 (M-040150-01), and murine caspase-8 (M-043044-01), as well as a non-targeting “scramble” pool(D-001206-14), were used. Two microliters of a 50 μM stock of these siRNAs were delivered to cells in 6-well format using Lipofectamine siRNA-Max reagent (Life Technologies 13778150) according to the manufacturer's instructions. Forty-eight hours later, these cells were re-plated into 24-well format for cell death assays, or harvested for western blot analysis of knockdowns.
These constructs were transduced into NIH-3T3 cells using standard protocols for helper-dependent retroviral transduction. Transduced cells were selected for 5 days in 1 μg/ml puromycin, then grown to confluence and sorted twice for homogenous GFP expression. […]

FKBPs with a single amino acid substitution, Phe36Val (Fv), sequence (P62942 whole entry F37V): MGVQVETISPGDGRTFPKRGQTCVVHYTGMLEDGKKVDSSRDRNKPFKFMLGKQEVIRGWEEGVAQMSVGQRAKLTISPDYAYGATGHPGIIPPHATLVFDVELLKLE
wild type FKBP, sequence (P62942 whole entry): as the sequence (P62942 whole entry F37V) above, with V37F counted along it

## RIPK3-2xFv: RIPK3 with two Fv domains attached to the C-terminus
[1]
  necrosome formation / interaction with RIPK1 and caspase-8 by construct: interaction with RIPK1 and caspase-8, regardless of the presence of zVAD or Nec1
[2]
  necroptotic response to AP1: faster and more robust necroptotic response
[3]
  RIPK3 complexes formed by construct after dimerizer (AP1) treatment: large molecular weight RIPK3 complexes were observed

## RIPK3-1xFv: murine RIPK3 fused to a single copy of mutated FKBP (F36V), Fv domain, at the C-terminus
[3]
  RIPK3 complexes formed by construct after dimerizer (AP1) treatment: present in a combination of dimers and larger oligomeric complexes
[4]
  sensitization to necroptosis induced by TNF and zVAD by construct expression: sensitized

## CC[C@H](C(=O)N1CCCC[C@H]1C(=O)O[C@H](CCc1ccc(OC)c(OC)c1)c1cccc(OCC(=O)NCC(CNC(=O)COc2cccc([C@@H](CCc3ccc(OC)c(OC)c3)OC(=O)[C@@H]3CCCCN3C(=O)[C@@H](CC)c3cc(OC)c(OC)c(OC)c3)c2)CN(C)C)c1)c1cc(OC)c(OC)c(OC)c1 [AP20187]
[5]
  pharmacokinetic properties: better pharmacokinetic properties than AP1510
[6]
  lower affinity to the wild type protein: 1000 fold
[7]
  affinity: subnanomolar
[8]
  doses with maximal effects: 0.5 to 10 mg/kg
[9]
  toxicity to cells: non-toxic

## AP21967
[9]
  non-toxic concentration to cells: up to 1 μM
[10]
  highest concentration ensuring complete solubility: ≤ 5 µM
[11]
  non-toxic dose in mice: up to 30 mg/kg
[12]
  less immunosuppressive than rapamycin: greater than 1000 fold

## CC[C@H](C(=O)N1CCCC[C@H]1C(=O)O[C@H](CCc1ccc(OC)c(OC)c1)c1cccc(OCC(=O)NCC(CNC(=O)COc2cccc([C@@H](CCc3ccc(OC)c(OC)c3)OC(=O)[C@@H]3CCCCN3C(=O)[C@@H](CC)c3cc(OC)c(OC)c(OC)c3)c2)CN(C)C)c1)c1cc(OC)c(OC)c(OC)c1 [AP1]
[13]
  RIPK3 activation and necroptosis upon AP1 addition: limited RIPK3 activation and necroptosis
